Like-named read-outs stand apart in the source and are kept apart here. Where no end group is shown, it is not given here.
How the values were obtained:
[1] = test system: Salmonella choleraesuis (DSM9220); format: cell-based
Excerpt: (§1) According to the NCCLS guidelines for susceptibility test of novel antimicrobial compounds, we found a broad spectrum of activity of Cat1 (Methods for Dilution Antimicrobial Susceptibility Tests for Bacteria That Grow Aerobically; Approved Standard-Fifth Edition. NCCLS document M7-A5 (ISBN1-56238-394-9)).

[2] = test system: Micrococcus luteus (ATCC9341); format: cell-based; details: susceptible strain, NCCLS guidelines
Description: as §1
(§2) In another campaign, the specific MICs of Cat1 were determined against a variety of microbial strains relevant for wound infections. As recommended in the above-mentioned NCCLS protocol, the strains were grown in cationic adjusted Muller-Hinton Broth. The highest concentration tested was 32 μg/ml.
(§3) The antimicrobial activity of the polypeptides of the invention was analyzed using the Microdilution Broth Assay (see Example 1) with Mueller Hinton Broth (MHB) media. Four different bacterial strains were tested in this setup; Micrococcus luteus (ATCC 9341), Pseudomonas aeruginosa (ATCC 27853), Escherichia coli (ATCC 10536) and Klebsiella pneumoniae (DSM681). The amino acid sequence of the polypeptides and the Minimal Inhibitory concentrations (MIC, microgram/ml) obtained is presented in Table 7 below.

[3] = test system: Bacillus subtilis (ATCC6633); assay: NCCLS microdilution broth assay (MIC); format: cell-based; details: susceptible strain, NCCLS guidelines
Excerpt: as §1

[4] = test system: Bortadella bronchiseptica (ATCC4617); assay: NCCLS microdilution broth assay (MIC); format: cell-based; details: susceptible strain, NCCLS guidelines
Excerpt: as §1

[5] = test system: Proteus mirabilis (ATCC7002); assay: NCCLS microdilution broth assay (MIC); format: cell-based; details: susceptible strain, NCCLS guidelines
Excerpt: as §1

[6] = test system: Klepsiella pneumoniae (ATCC10031); assay: NCCLS microdilution broth assay (MIC); format: cell-based; details: susceptible strain, NCCLS guidelines
Excerpt: as §1

[7] = test system: Staphylococcus epidermidis (DSM1798); assay: NCCLS microdilution broth assay (MIC); format: cell-based; details: susceptible strain, NCCLS guidelines
Excerpt: as §1

[8] = test system: Enterococcus faecalis (DSM2570); assay: NCCLS microdilution broth assay (MIC); format: cell-based; details: susceptible strain, NCCLS guidelines
Excerpt: as §1

[9] = test system: Klebsiella pneumoniae (DSM681); format: cell-based
Description: as §1, §3

[10] = test system: Pseudomonas aeroginosa (ATCC27853); format: cell-based, Pseudomonas aeruginosa
Description: as §1, §2
Minimal inhibitory concentrations of Cat1 were also determined using cation-adjusted Mueller hinton broth (MHB) in the microbroth dilution assay, wherein MHB was used with different modifications as depicted in Table 2 below. The selected test organism was Pseudomonas aeroginosa (ATCC 27853). […]

[11] = test system: Morganella morganii ATCC 21116; format: cell-based
Description: as §1, §2

[12] = test system: Streptotoccus pyogenes ATCC 4543; format: cell-based
Description: as §1, §2

[13] = test system: Staphylococcus aureus (MSSA) ATCC 25923; format: cell-based
Description: as §1, §2

[14] = test system: Klebsiella pneumoniae ATCC 29995; format: cell-based
Description: as §1, §2

[15] = test system: Staphylococcus epidermidis ATCC 12228; format: cell-based
Description: as §1, §2

[16] = test system: Acinetobacter baumanii ATCC 49137; format: cell-based
Description: as §1, §2

[17] = test system: Citrobacter freundii ATCC 11811; format: cell-based
Description: as §1, §2

[18] = test system: Streptococcus agalactiae ATCC 624; format: cell-based
Description: as §1, §2

[19] = test system: Stenotrophomonas maltophilia ATCC 12714; format: cell-based
Description: as §1, §2

[20] = test system: Staphyloloccus aureus GISA ATCC 700699; format: cell-based
Description: as §1, §2

[21] = test system: Bordetella bronchiseptica ATCC 14064; format: cell-based
Description: as §1, §2

[22] = test system: Streptococcus pneumoniae ATCC 10015; format: cell-based
Description: as §1, §2

Staphylococcus camosus = assay: Radial Diffusion Assay using minimal conditions (MEC); format: cell-based; details: Table 8
Description: (§4) A modified version of a previously published protocol has been applied in the detection of antimicrobial activity (Lehrer et al., (1991) Ultra sensitive assays for endogenous antimicrobial polypeptides J Immunol Methods 137: 167-173). Target bacteria (10^6 colony forming units (CFU)) were added to 10 ml of underlay agarose (1% low electro-endosmosis agarose, 0.03% Trypticase soy broth, 10 mM sodium phosphate, pH 7.4, 37 degrees Celsius). Suspension was solidified on an INTEGRID Petri Dish (Becton Dickinson Labware). A 3 mm Gel Puncher was used to make holes in the underlay agarose (Amersham Pharmacia Biotech, Sweden). Samples were added to the holes and incubated at 37 degrees Celsius, 3 hours. An overlay was poured on top and the plate was incubated overnight (LB media, 7.5% Agar). Antimicrobial activity was seen as bacterial clearing zones around the wells. Living cells was counterstained by adding 10 ml, 0.2 mM MTT (3-(4,5-Dimethylthiazol-2-yl)-2,5-diphenyltetrazolium bromide Thiazolyl blue).
(§5) The antimicrobial activity of the polypeptides of the invention was also analyzed in a Radial Diffusion Assay (see Example 1) using minimal conditions. Two bacterial strains were tested in this setup; Staphylococcus camosus and Escherichia coli Top10. The amino acid sequence of the polypeptides and the Minimal Effective Concentration (MEC, microgram/ml) obtained is presented in table 8 below.

Escherichia coli Top10 = assay: as above; format: cell-based; details: Table 8
Description: as §4, §5

[23] = test system: Eschericia coil (ATCC10536); format: cell-based, Escherichia coli
Description: as §1, §3

[24] = test system: Pseudomonas aeroginosa (ATCC 27853); assay: Killing kinetics in MHB; format: cell-based, Pseudomonas aeruginosa; details: Cat1 at 4×MIC
Description: The rate of killing of Cat1 was determined in MHB using Pseudomonas aeroginosa (ATCC 27853) as the test organism. The bacteria were incubated with Cat1 (at 4×MIC concentration). At different time-points, several dilutions of the preparation were plated and an estimate of viable cells was determined (CFU/ml). The results in Table 3 indicate that Cat1 rapidly kills the bacteria, with a near 3-log reduction in CFU within 30 minutes.

[25] = susceptible strain, NCCLS guidelines

GLLRRLRKKIGKKLKKIGQKIKPIRILVP [SEQ ID NO: 3]
MIC [1]: < 64 µg/mL
MIC [2]: < 64 µg/mL
MIC [3]: < 64 µg/mL
MIC [4]: < 64 µg/mL
MIC [5]: < 64 µg/mL
MIC [6]: < 64 µg/mL
MIC [7]: < 64 µg/mL
MIC [8]: < 64 µg/mL
MIC [9]: 32 to 64 µg/mL
MIC ([10]; ATCC27853, pH 5.5): 6 µg/mL
MIC ([10]; ATCC27853, pH 6.5): 6 µg/mL
MIC [10, 25]: < 64 µg/mL
MIC [11]: 1.5 µg/mL
MIC [12]: 1.5 µg/mL
MIC [13]: 32 µg/mL
MIC [14]: 8 µg/mL
MIC [15]: 4 µg/mL
MIC [16]: 8 µg/mL
MIC [17]: 1.5 µg/mL
MIC [18]: 16 µg/mL
MIC [19]: 1 µg/mL
MIC [20]: 32 µg/mL
MIC [21]: 0.5 µg/mL
MIC [22]: 8 µg/mL
MEC (Staphylococcus camosus): 2.5 µg/mL
MEC (Escherichia coli Top10): 8.5 µg/mL
MIC ([23]; ATCC10536): 8 µg/mL
MIC [23, 25]: < 64 µg/mL
viable cells (CFU/ml) ([24]; 0.5 hours): 175 CFU/ml
viable cells (CFU/ml) ([24]; 1.5 hours): <20 CFU/ml
viable cells (CFU/ml) ([24]; 24 hours): <20 CFU/ml
reduction in CFU ([24]; within 30 minutes): ~3 log
